Values quoted from earlier work in patent US20100035919A1, “COMPOUNDS USEFUL AS INHIBITORS OF PROTEIN KINASES” (ABBOTT LABORATORIES, priority 2008, published 2010).

Legend:
vein grafts = settings: weeks following the procedure
Zucker obese rats = settings: 4 weeks
rat = settings: experimental myocardial infarction (MI); rat model of chronic hypertension induced congestive heart failure
OLETF rats = settings: high dose

Row | Compound | cerebral blood flow (in vivo) | neuroprotection (under CNS ischemic conditions) | VSMC apoptosis (vein grafts) | intimal thickening and vascular smooth muscle cell (VSMC) proliferation (vein grafts) | blood pressure, glucose and lipid metabolism, insulin signalling, endothelial dysfunction (Zucker obese rats) | effect on ischemia-reperfusion injury, myocardial infarct size and myocardial fibrosis (rat) | development of diabetes, obesity, and dyslipidemia (OLETF rats) | serum adiponectin levels (OLETF rats)
1 | O=S(=O)(c1cccc2cnccc12)N1CCCNCC1 [fasudil] | increased cerebral blood flow | neuroprotective | enhanced | significantly suppressed | reduced blood pressure, corrected glucose and lipid metabolism, improved insulin signalling and endothelial dysfunction | decrease ischemia-reperfusion injury, myocardial infarct size, and myocardial fibrosis | completely suppressed | increased
2 | C[C@@H](N)[C@H]1CC[C@H](C(=O)Nc2ccncc2)CC1 [Example Y-27632, Y-27632] |  |  |  |  |  | decrease ischemia-reperfusion injury, myocardial infarct size, and myocardial fibrosis |  | 
